According to patent US11504380B2, “Method of treatment of cirrhosis” (INVENTIVA, priority 2019, dated 2022):

Assays:
Format in all cases: in vivo, Sprague Dawley rats
[1] = tested on: rat model of cirrhosis induced by the administration of thioacetamide (TAA); experiment: Liver tissue mRNA expression by qPCR in TAA-induced cirrhotic rats; conditions: TAA-exposed rats, 100 mg/kg
Text: (§1) Lanifibranor has been assessed in a rat model of cirrhosis induced by the administration of thioacetamide (TAA), which administration leads to the development of fibrosis in the early time points and then of cirrhosis in the late time points, turning for the majority of the animals to decompensated cirrhosis. Sprague Dawley rats (12-15 rats per groups) were intraperitoneally administered TAA (twice a week) for a period of twelve weeks to ensure reaching decompensated cirrhosis. At the end of this period, a TAA detoxification period of four days was observed. The rats were then orally administered for two weeks with either lanifibranor at 100 mg/kg/day in vehicle (methylcellulose 1%+poloxamer-188 0.1%), or with vehicle alone (control). At the end of the two weeks of treatment in vivo systemic and hepatic hemodynamics were determined and rats were then sacrificed, and plasma samples and liver tissue were harvested. RNA was extracted from liver tissue using Trizol (Life Technologies), and quantified with the help of a NanoDrop spectrophotometer. Reverse transcription was carried out following QuantiTect reverse transcription kit (Qiagen). qPCR was performed using PowerUp SYBR Green Master Mix (Thermo Fisher) and specific primers.

[2] = tested on: rat model of cirrhosis induced by the administration of thioacetamide (TAA); experiment: Systemic and hepatic hemodynamics, ascites and body/organ weights in TAA-induced cirrhotic rats; conditions: for IHVR (intrahepatic resistance) / PBF (portal blood flow) / PP (portal pressure): 100 mg/kg/day
Text: as §1, with “The hemodynamics measurements were obtained as follow: mean arterial pressure (MAP) and heart rate (HR) were measured by cannulating the femoral artery; portal pressure (PP)” for “RNA”, “measured by cannulating the ileocolic vein, both with a heparinized p50 catheter (Portex) connected to a pressure probe; portal blood flow (PBF) was determined” for “extracted from liver tissue using Trizol (Life Technologies), and quantified”, “of” for “of a NanoDrop spectrophotometer. Reverse transcription was carried out following QuantiTect reverse transcription kit (Qiagen). qPCR was performed using PowerUp SYBR Green Master Mix (Thermo Fisher) and”, “non-constrictive perivascular ultrasonic transit-time flow probe (Transonic Systems Inc.).” for “primers.”

[3] = tested on: rat model of cirrhosis induced by the administration of thioacetamide (TAA); experiment: Liver histology (Sirius Red collagen staining) and electron microscopy of sinusoidal fenestrae in TAA-induced cirrhotic rats; conditions: TAA-exposed rats, 100 mg/kg
Text: as §1, with “Liver” for “RNA was extracted from liver”, “samples for histology were fixed in 4% formaldehyde (Sigma), embedded in paraffin, sectioned” for “using Trizol (Life Technologies),”, “stained” for “quantified”, “0.1% Sirius Red in picric acid aqueous solution (Sigma). Sinusoidal fenestrae were analyzed by electronic microscopy.” for “the help of a NanoDrop spectrophotometer. Reverse transcription was carried out following QuantiTect reverse transcription kit (Qiagen). qPCR was performed using PowerUp SYBR Green Master Mix (Thermo Fisher) and specific primers.”

[4] = tested on: rat model of cirrhosis induced by the administration of thioacetamide (TAA); experiment: Liver tissue protein levels by Western blot in TAA-induced cirrhotic rats; conditions: TAA-exposed rats, 100 mg/kg, vs vehicle
Text: (§2) Lanifibranor has been assessed in a rat model of cirrhosis induced by the administration of thioacetamide (TAA), which administration leads to the development of fibrosis in the early time points and then of cirrhosis in the late time points, turning for the majority of the animals to decompensated cirrhosis. Sprague Dawley rats (12-15 rats per groups) were intraperitoneally administered TAA (twice a week) for a period of twelve weeks to ensure reaching decompensated cirrhosis. At the end of this period, a TAA detoxification period of four days was observed. The rats were then orally administered for two weeks with either lanifibranor at 100 mg/kg/day in vehicle (methylcellulose 1%+poloxamer-188 0.1%), or with vehicle alone (control). At the end of the two weeks of treatment in vivo systemic and hepatic hemodynamics were determined and rats were then sacrificed, and plasma samples and liver tissue were harvested. Triton lysis buffer was used for protein extraction of liver tissue samples. Proteins were separated by molecular weight by electrophoresis using a sodium dodecylsulphate polyacrylamide gel, and transferred to a nitrocellulose membrane (Western blot).

[5] = tested on: rat model of cirrhosis induced by the administration of thioacetamide (TAA); experiment: AST protein content in plasma of TAA-induced cirrhotic rats; conditions: TAA-exposed rats, 100 mg/kg, vs vehicle, p<0.005 (FIG. 8)
Text: as §2, with “harvested.” for “harvested. Triton lysis buffer was used for protein extraction of liver tissue samples. Proteins were separated by molecular weight by electrophoresis using a sodium dodecylsulphate polyacrylamide gel, and transferred to a nitrocellulose membrane (Western blot).”

[6] = TAA-exposed rats, 100 mg/kg/day orally for two weeks
[7] = TAA-exposed rats, 100 mg/kg/day orally for two weeks, listed as lanifibranor

## O=C(O)CCCc1cc2cc(Cl)ccc2n1S(=O)(=O)c1ccc2ncsc2c1 [Lanifibranor, 4-[1-(1,3-benzothiazol-6-ylsulfonyl)-5-chloroindol-2-yl]butanoic acid]
[1]; vs vehicle (FIG. 6)
  VCAM-1 mRNA expression: a trend
[1]; vs vehicle, P<0.05 (FIG. 6)
  E-Selectin mRNA: significant decrease
  ICAM-1 mRNA: significant decrease
[1]; vs vehicle, p<0.001 (FIG. 2)
  TIMP1 mRNA expression: significantly reduced
[1]; vs vehicle, p<0.005 (FIG. 1)
  collagen 1a1 mRNA expression: significant decrease
[1]; vs vehicle, p<0.005 (FIG. 3a)
  α-SMA expression at mRNA level: significantly reduced
[1]; vs vehicle, p<0.05 (FIG. 2)
  TIMP2 mRNA expression: significantly reduced
[1]; vs vehicle, p<0.05 (FIG. 7)
  IL-6 mRNA expression: significantly decreased
[2]; [6]
  Ascites: 16%
  MAP (mean arterial pressure): 84 ± 2 mmHg
  IHVR (intrahepatic resistance): 0.53 ± 0.06 mmHg · min/mL
  PBF (portal blood flow): 23.5 ± 2.1 mL/min
  PP (portal pressure): 11.2 ± 0.5 mmHg
[2]; [7]
  IHVR (intrahepatic resistance): 0.75±0.1 mmHg · min/mL
  PBF (portal blood flow): no significant changes
  PP (portal pressure): 11.2±0.5 mmHg
[2]; cirrhotic rats administered with lanifibranor vs vehicle
  systemic hemodynamics: No effects
[3]
  collagen deposition (PicroSirius Red, PSR, staining): 12.3%
[3]; vs vehicle, p<0.05 (FIG. 4), electronic microscopy
  sinusoidal capillarization (sinusoidal fenestrae): significantly reduced
[3]; PicroSirius Red staining
  histological decrease in collagen deposition compared to vehicle: 32%
[4]; p<0.01 (FIG. 5)
  protein level of Von Willebrand factor: significantly reduced
[4]; p<0.05 (FIG. 3a)
  α-SMA expression at protein level: significantly reduced
[4]; p<0.05 (FIG. 3b)
  protein level of Desmin: significantly reduced
[5]
  AST protein content in plasma: significantly decreased
